Paper PMC10429771, “Bioorthogonal activation of prodrugs, for the potential treatment of breast cancer, using the Staudinger reaction” (RSC Medicinal Chemistry, 2023)

Columns and labels:
MCF-7 cells [1] = assay: Azide-reporter generation by confocal microscopy (DBCO-Cy5 MFI), MCF-7; type: cell-based, human; settings: breast cancer MCF-7 versus normal fibroblast L929
Description: (§1) For azide generation analysis in breast cancer cells and mouse fibroblasts, MCF-7 cells were cultured in 5% fetal bovine serum and RPMI 1640 medium and L929 cells were cultured in 10% fetal bovine serum and DMEM medium at 37 °C in a 5% CO2 incubator.
(§2) For fluorescence quantification, 4 × 10^4 cell per mL of MCF-7 and 1 × 10^4 cell per mL of L929 cells were seeded into a 35 mm covered glass-bottom dishes and incubated with 50 μM Ac4ManNAz-, 4-, and 5-containing medium for 72 h at 37 °C CO2 incubator, respectively. Then to visualize the azide groups, the sugar-containing medium was removed and the cells were washed twice with PBS and further incubated with 20 μM dibenzylcyclooctyne-conjugated Cy5 (DBCO-Cy5)-containing fresh medium for 1 h at 37 °C. Then, the cells were washed twice with PBS and fixed with formaldehyde fixative for 10 min in dark conditions. After fixation, the cells were washed twice with PBS and mounted with 4,6-diamidino-2-phenylindole (DAPI) (5 μg mL^−1). The cells were observed using a confocal laser microscope (Nikon A1R Confocal with 405, 445, 488, 514, 561 and 640 nm lasers). The mean fluorescence intensity was analyzed using ImageJ software and the data were represented as absolute values.

L929 cells [2] = assay: Azide-reporter generation by confocal microscopy (DBCO-Cy5 MFI), L929; type: cell-based, mouse; settings: 50 μM, 72 h; DBCO-Cy5 20 μM 1 h
Description: as §1, §2

[3] = Cell viability of L929 cells after azide-modified sugars (MTT); type: cell-based; settings: mouse, L929 fibroblast cells, 50 μM sugar, no change compared to control
L929 cells [4] = assay: Azide-reporter generation by Western blotting, L929; type: cell-based, mouse; settings: 50 μM, 72 h; lysates reacted with phosphine-PEG3-biotin
Description: as §1
To analyse the engineered azide groups in glycoproteins in vitro, 4 × 10^4 cell per mL of MCF-7 and 1 × 10^4 cell per mL of L929 cells were seeded into 6-well plates and incubated with 50 μM Ac4ManNAz-, 4-, and 5-containing medium for 72 h at 37 °C CO2 incubator, respectively. Cells were then washed twice with ice cold PBS and lysed using ice cold RIPA buffer (Thermo Fisher Scientific, UK) with 1% protease inhibitor cocktail. Lysates were centrifuged at 12 000 rpm for 10 min at 4 °C to remove cell debris. The total protein of each sample was quantified by DC assay (Bio-rad DC Protein Assay Kit, Bio-rad, UK). The lysates were then incubated with 0.5 μM phosphine-PEG3-biotin (Thermo Fisher Scientific, UK) for 12 h at room temperature. The proteins from each sample were mixed with 1× sodium dodecyl sulfate (SDS) gel-loading buffer (125 mol L^−1 Tris, pH 6.8, 5% glycerol, 2% SDS, 1% β-mercaptoethanol, and 0.006% bromophenol blue) and boiled for 5 min. Then, 20 μg of proteins was separated by 8% SDS – polyacrylamide gel electrophoresis and transferred onto PVDF membranes. The membranes were blocked for 1.5 h at room temperature in 0.5% bovine serum albumin (BSA) containing 1× TBST solution (10 mol L^−1 Tris, pH 7.4, 100 mol L^−1 NaCl, and 0.1% Tween 20). Then, the membranes were incubated with streptavidin-HRP (Cell Signalling Technology, UK) containing 1× TBST solution for overnight at 4 °C. Next day, the membranes were washed three times using 1× TBST and protein band was detected with an ECL system.

L929 cells [5] = assay: MTT assay, prodrug activation and cytotoxicity in L929 cells; type: cell-based, mouse; settings: for prodrug activation on L929 cells: L929 cells pre-treated with azido-sialic acid derivatives 4 and 5, 50 μM; for IC50: Mus musculus, MTT, mean ± SEM (n = 3); for IC50 on L929 cells relative to MCF-7 cells: non-engineered cells, L929 IC50 higher than MCF-7 IC50
Description: (§3) The in vitro prodrug activation and anticancer activity of compounds 10 and 12 was determined using the MTT assay. MCF-7 cells or L929 cells were incubated with 50 μM Ac4ManNAz-, 4-, and 5-containing RPMI medium or 50 μM Ac4ManNAz-, 4-, and 5-containing DMEM medium, respectively for 72 h at 37 °C CO2 incubator as described above. Then, the engineered and non-engineered MCF-7 cells or L929 cells were seeded on 96-well plates (4 × 10^4 cells per mL) or (1 × 10^5 cells per mL), respectively and incubated at 37 °C for 24 h. Cells were then treated with a range of concentration of both prodrugs 10 and 12 (0.001–10 μM) and incubated for 72 h. After incubation, the treatments-containing medium was removed and 20 μL of 0.5 mg mL^−1 MTT in PBS solution was added in each well for 4 h. The resulting formazan crystals were dissolved in 100 μL of DMSO after carefully removing the MTT solution. The absorbance was recorded at 570 nm by InfiniteF50 TECAN microplate reader. The cells without any treatment were used as the control. Assays were performed in three replicates, which the statistical mean and standard deviation were used to estimate the cell viability. IC50 (inhibitory concentration to induce 50% cell death) values were determined using GraphPad Prism 8.0.2 according to the fitted data.

MCF-7 cells [6] = assay: MTT assay, prodrug activation and anticancer activity in MCF-7 cells; type: cell-based, human; settings: for IC50: Homo sapiens, MTT, mean ± SEM (n = 3)
Description: as §3

[7] = L929, 4-engineered L929 cells (50 μM 4, 72 h pre-treatment)
[8] = L929, 5-engineered L929 cells (50 μM 5, 72 h pre-treatment)
[9] = L929, 72 h, non-engineered L929 cells, 72 h
[10] = L929, Ac4ManNAz-engineered L929 cells (50 μM, 72 h pre-treatment)
[11] = MCF7, 4-engineered MCF-7 cells (50 μM 4, 72 h pre-treatment)
[12] = MCF7, 5-engineered MCF-7 cells (50 μM 5, 72 h pre-treatment)
[13] = MCF7, 72 h, non-engineered MCF-7 cells, 72 h
[14] = MCF7, Ac4ManNAz-engineered MCF-7 cells (50 μM, 72 h pre-treatment)

Row | Structure (SMILES) | higher azide expression on MCF-7 cells versus L929 cells (MCF-7 cells [1]) [fold] | fluorescence in L929 cells (confocal) (L929 cells [2]) | viability at 50 µM [3] [%] | azide incorporation in L929 cells (Western blotting) (L929 cells [4]) | prodrug activation on L929 cells (L929 cells [5]) | IC50 (L929 cells [5]; [7]) [µM] | IC50 (L929 cells [5]; [8]) [µM] | IC50 (L929 cells [5]; [9]) [µM] | IC50 (L929 cells [5]; [10]) [µM] | IC50 on L929 cells relative to MCF-7 cells (L929 cells [5]) | IC50 (MCF-7 cells [6]; [11]) [µM] | IC50 (MCF-7 cells [6]; [12]) [µM] | IC50 (MCF-7 cells [6]; [13]) [µM] | IC50 (MCF-7 cells [6]; [14]) [µM] | decrease in potency of prodrug versus doxorubicin (MCF-7 cells [6]; non-engineered MCF-7 cells, IC50 of prodrug 12 vs doxorubicin 11)
1 | CC(=O)N[C@H]1[C@H]([C@H](O)[C@H](O)CN=[N+]=[N-])OC(O)(C(=O)O)C[C@@H]1O (stereo in doubt) [Compound 4, 9-Azido-5-acetamido-3,5,9-trideoxy-β-D-glycero-D-galacto-2-nonulosonic acid] | ~17 | did not show any fluorescence | 92.4 ± 1.6 | did not show any azide-reporter generation | – | – | – | – | – | – | – | – | – | – | –
2 | CC(=O)OC[C@H]1OC(OC(C)=O)[C@@H](NC(=O)CN=[N+]=[N-])[C@@H](OC(C)=O)[C@@H]1OC(C)=O (stereo partly drawn) [Ac4ManNAz, Tetra-O-acetyl azidomannosamine, reference compound] | – | – | 97.5 ± 5.2 | caused the azide incorporation | – | – | – | – | – | – | – | – | – | – | –
3 | CC(=O)N[C@H]1[C@H]([C@H](OC(C)=O)[C@@H](CN=[N+]=[N-])OC(C)=O)O[C@@](OC(C)=O)(C(=O)O)C[C@@H]1OC(C)=O [Compound 5, 9-Azido-5-acetamido-2,4,7,8-tetracetyl-3,5,9-trideoxy-β-D-glycero-D-galacto-2-nonulosonic acid] | ~17 | did not show any fluorescence | 122 ± 5.5 | did not show any azide-reporter generation | – | – | – | – | – | – | – | – | – | – | –
4 | COc1cccc2c1C(=O)c1c(O)c3c(c(O)c1C2=O)C[C@@](O)(C(=O)CO)C[C@@H]3OC1C[C@@H](NC(=O)c2ccccc2P(c2ccccc2)c2ccccc2)[C@@H](O)[C@@H](C)O1 (stereo partly drawn) [Dox-prodrug 12, 2-(Diphenylphosphino)-N-((2R,3R,4R)-3-hydroxy-2-methyl-6-(((1S,3S)-3,5,12-trihydroxy-3-(2-hydroxyacetyl)-10-methoxy-6,11-dioxo-1,2,3,4,6,11-hexahydrotetracen-1-yl)oxy)tetrahydro-2H-pyran-4-yl)benzamide] | – | – | – | – | No activation | 11.2 ± 1.04 | 10.7 ± 0.22 | 11.3 ± 0.23 | 7.7 ± 0.26 | approximately 2 fold | 0.5 ± 0.03 | 1.6 ± 0.09 | 4.6 ± 0.19 | 0.2 ± 0.01 | more than 20 fold
5 | COc1cccc2c1C(=O)c1c(O)c3c(c(O)c1C2=O)C[C@@](O)(C(=O)CO)C[C@@H]3O[C@H]1C[C@H](N)[C@H](O)[C@H](C)O1 [Doxorubicin 11, doxorubicin, reference compound] | – | – | – | – | – | – | – | 2.04 ± 0.009 | – | – | – | – | 0.2 ± 0.03 | – | –
6 | O=C(Nc1ccc(N(CCCl)CCCl)cc1)c1ccccc1P(c1ccccc1)c1ccccc1 [N-mustard prodrug 10, N-(4-(Bis(2-chloroethyl)amino)phenyl)-2-(diphenylphosphaneyl)benzamide] | – | – | – | – | No activation | 29.9 ± 0.69 | 29.7 ± 1.2 | 31.4 ± 0.44 | 21.1 ± 0.58 | approximately 2 fold | 2.1 ± 1.11 | 9.3 ± 0.63 | 20.8 ± 1.27 | 0.6 ± 0.08 | –
